The record followed here is ChEMBL document CHEMBL1201862, “PubChem BioAssay data set” (2004).

SMILES strings stand for the structures.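 Exposure lasted 48 hours, with cells grown in 96-well plates and compounds tested at five concentrations. Abbreviation: GI50, concentration required for 50% inhibition of growth.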 Active and inactive are the calls of the source. No stated cut-off is given here; in the data, active = GI50 up to about 1.1 µM and inactive = higher. A value given as a limit tells only on which side of the number the result lay.

Among the test systems are 786-0; CAKI-1; CCRF-CEM; COLO 205; DU-145; EKVX; HCC 2998; HCT-15; Hs-578T; KM12; MDA-MB-231; MDA-MB-435; MOLT-4; NCI/ADR-RES; OVCAR-5; SF-268; SNB-19; U-251; UACC-62; UO-31.
Common to all, as to assay: NCI tumour cell line growth inhibition, 48 h

With `O=C(NCCNCCNC(=O)c1cc(-c2ccccc2)nc2ccccc12)c1cc(-c2ccccc2)nc2ccccc12`, the GI50 in the assay with 786-0 is 1.69 µM (inactive); in the assay with CAKI-1, 9.79 µM (inactive); in the assay on CCRF-CEM it was 3.77 µM (inactive); in the assay with COLO 205, 1.98 µM (inactive); with DU-145, 2.38 µM (inactive); with EKVX, 4.47 µM (inactive). Besides, the GI50 is 1.73 µM (inactive) with HCC 2998; 2.92 µM in the assay on HCT-15; 2.73 µM (inactive) with Hs-578T; 1.91 µM (inactive) with KM12; 2.51 µM (inactive) with MDA-MB-231; 1.82 µM (inactive) with MDA-MB-435. Also, the GI50 in the assay with MOLT-4 was 2.37 µM (inactive); in the assay with NCI/ADR-RES it was 1.76 µM (inactive); with OVCAR-5, 2.17 µM (inactive); in the assay with SF-268, 2.84 µM (inactive); in the assay with SNB-19, 3.21 µM (inactive); in the assay on U-251, 2.08 µM (inactive). Also, the GI50 is 2.09 µM (inactive) in the assay with UACC-62 and 2.64 µM (inactive) in the assay with UO-31.

For `Cc1ccc(N/C(SCc2ccccc2)=C(\C(Cl)=C(Cl)Cl)[N+](=O)[O-])c(C)c1`, the GI50 with 786-0 was 23.6 µM (inactive); in the assay on CAKI-1 it was 18.6 µM (inactive); in the assay with CCRF-CEM it was 31 µM (inactive); in the assay on COLO 205 it was 17.8 µM (inactive); with DU-145, 6.31 µM (inactive); with EKVX it was 33.4 µM (inactive). The GI50 was 45.6 µM (inactive) in the assay with HCC 2998; 17.7 µM in the assay with HCT-15; 39.1 µM (inactive) with Hs-578T; 17.2 µM (inactive) in the assay on KM12; 14.6 µM (inactive) in the assay with MDA-MB-231; 7.21 µM (inactive) in the assay with MDA-MB-435. Also, the GI50 is > 100 µM (inactive) in the assay on MOLT-4; 21.2 µM (inactive) in the assay with NCI/ADR-RES; 19.6 µM (inactive) with OVCAR-5; 14.3 µM (inactive) in the assay with SF-268; 30.4 µM (inactive) in the assay on SNB-19; 15.6 µM (inactive) in the assay on U-251. Besides, the GI50 is 23.6 µM (inactive) with UACC-62 and 20 µM (inactive) with UO-31.

On to `C=CCC1(C)CCCN(Cc2ccccc2)C1=O` (stereo not given), for which the GI50 with 786-0, in the assay with CAKI-1, in the assay on CCRF-CEM, with COLO 205, in the assay with DU-145 and in the assay on EKVX was > 10 µM (inactive) each time. For the same compound, the GI50 is > 10 µM (inactive) with HCC 2998; greater than 10 µM in the assay with HCT-15; > 10 µM (inactive) in the assay with Hs-578T; > 10 µM (inactive) with KM12; > 10 µM (inactive) in the assay on MDA-MB-231; > 10 µM (inactive) with MDA-MB-435. Also, the GI50 with MOLT-4, with NCI/ADR-RES, in the assay with OVCAR-5, in the assay on SF-268, in the assay on SNB-19 and in the assay with U-251 was > 10 µM (inactive) throughout. The GI50 with UACC-62 and with UO-31 was > 10 µM (inactive) in each case.

On to `CCOc1cc2c(NCCCN(CCO)CCO)ncnc2c(OCC)c1OCC`, for which the GI50 in the assay on 786-0 was > 100 µM (inactive); in the assay with CAKI-1, > 100 µM (inactive); in the assay on CCRF-CEM it was > 100 µM (inactive); in the assay with COLO 205 it was 69.3 µM (inactive); with DU-145 it was > 100 µM (inactive); in the assay on EKVX it was > 100 µM (inactive). For the same compound, the GI50 in the assay on HCC 2998 was 22 µM (inactive); with HCT-15 it was greater than 100 µM; in the assay with Hs-578T it was 82.2 µM (inactive); with KM12 it was > 100 µM (inactive); with MDA-MB-231, > 93.1 µM (inactive); in the assay on MDA-MB-435, > 100 µM (inactive). Moreover, the GI50 in the assay with MOLT-4 is > 87.1 µM (inactive); in the assay with NCI/ADR-RES, > 100 µM (inactive); in the assay with OVCAR-5 it was > 100 µM (inactive); with SF-268 it was > 100 µM (inactive); in the assay with SNB-19, > 100 µM (inactive); in the assay on U-251 it was > 100 µM (inactive). For the same compound, the GI50 with UACC-62 and in the assay on UO-31 was > 100 µM (inactive) in each case.

As to `CC12CC(c3ccccc3O1)C(C(=O)Nc1nccs1)C(=O)N2` (stereo not given), the GI50 is > 100 µM (inactive) with 786-0; > 100 µM (inactive) in the assay on CAKI-1; > 100 µM (inactive) with CCRF-CEM; > 100 µM (inactive) in the assay on COLO 205; > 100 µM (inactive) in the assay on DU-145; 35.7 µM (inactive) in the assay on EKVX. Also, the GI50 was > 100 µM (inactive) with HCC 2998; greater than 100 µM in the assay with HCT-15; > 100 µM (inactive) with Hs-578T; > 100 µM (inactive) in the assay with KM12; > 100 µM (inactive) with MDA-MB-231; > 100 µM (inactive) in the assay on MDA-MB-435. In addition, the GI50 in the assay with MOLT-4, in the assay on NCI/ADR-RES, in the assay with OVCAR-5, in the assay with SF-268, with SNB-19 and in the assay on U-251 was > 100 µM (inactive) in each case. Also, the GI50 in the assay on UACC-62 and with UO-31 was > 100 µM (inactive) each time.

As to `O=C(NCCCCCCCCCCCCNC(=O)Nc1cccc2ccccc12)Nc1cccc2ccccc12`, the GI50 with 786-0 was 13.5 µM (inactive); in the assay on CAKI-1, 17.9 µM (inactive); in the assay on CCRF-CEM, 16.6 µM (inactive); in the assay on COLO 205 it was 20.6 µM (inactive); in the assay on DU-145 it was 24.3 µM (inactive); in the assay with EKVX, 19.1 µM (inactive). The GI50 is 14.2 µM (inactive) in the assay with HCC 2998; 18.4 µM in the assay on HCT-15; 14.7 µM (inactive) in the assay with Hs-578T; 18.4 µM (inactive) in the assay on KM12; 20.7 µM (inactive) in the assay on MDA-MB-231; 17.9 µM (inactive) in the assay on MDA-MB-435. The GI50 is 20.3 µM (inactive) in the assay on MOLT-4; 24.1 µM (inactive) in the assay with NCI/ADR-RES; 25.2 µM (inactive) in the assay with OVCAR-5; 14.3 µM (inactive) in the assay on SF-268; 15.1 µM (inactive) with SNB-19; 14.3 µM (inactive) in the assay on U-251. For the same compound, the GI50 in the assay on UACC-62 is 12.6 µM (inactive); with UO-31, 19.1 µM (inactive).

`CCCCN1C(=O)C2Cc3c([nH]c4ccccc34)C(c3cccc(O)c3)N2C1=O` (stereo not given): the GI50 in the assay with 786-0 was 18.9 µM (inactive); with CAKI-1, 18.7 µM (inactive); in the assay on CCRF-CEM, 18.2 µM (inactive); in the assay with COLO 205, 19.6 µM (inactive); with DU-145 it was 18.6 µM (inactive); in the assay on EKVX, 17.9 µM (inactive). Further, the GI50 was 18.9 µM (inactive) with HCC 2998; 18.7 µM in the assay on HCT-15; 27.9 µM (inactive) in the assay on Hs-578T; 19.4 µM (inactive) in the assay on KM12; 15.5 µM (inactive) in the assay on MDA-MB-231; 17.3 µM (inactive) in the assay with MDA-MB-435. Besides, the GI50 with MOLT-4 was 26.7 µM (inactive); with NCI/ADR-RES, 18.5 µM (inactive); in the assay with OVCAR-5, 18.8 µM (inactive); in the assay with SF-268, 19.1 µM (inactive); in the assay with SNB-19 it was 19.1 µM (inactive); in the assay on U-251, 19 µM (inactive). Besides, the GI50 is 17.7 µM (inactive) in the assay with UACC-62 and 17.5 µM (inactive) in the assay on UO-31.

Consider `O=C1c2sc(-c3ccc(Cl)cc3)cc2-n2cccc21`, for which the GI50 in the assay with 786-0, with CAKI-1, in the assay with CCRF-CEM, in the assay with COLO 205, in the assay on DU-145 and in the assay with EKVX was > 100 µM (inactive) in each case. The GI50 in the assay on HCC 2998 is > 100 µM (inactive); in the assay with HCT-15, greater than 100 µM; in the assay with Hs-578T it was > 100 µM (inactive); in the assay with KM12, > 100 µM (inactive); in the assay with MDA-MB-231, > 100 µM (inactive); with MDA-MB-435, > 100 µM (inactive). Also, the GI50 in the assay with MOLT-4, in the assay on NCI/ADR-RES, in the assay with OVCAR-5, in the assay on SF-268, in the assay with SNB-19 and in the assay on U-251 was > 100 µM (inactive) throughout. In addition, the GI50 with UACC-62 and in the assay with UO-31 was > 100 µM (inactive) in each case.

As for `C=C(C)C1Cc2c(cc3c(c2O)c(=O)c2ccccc2n3C)O1` (stereo not given), the GI50 in the assay with 786-0 was 1.51 µM (inactive); in the assay with CAKI-1, 2.99 µM (inactive); with CCRF-CEM, 0.724 µM (active); in the assay on COLO 205 it was 5.75 µM (inactive); with DU-145 it was > 10 µM (inactive); in the assay with EKVX it was 17.5 µM (inactive). Further, the GI50 in the assay with HCC 2998 was 12.1 µM (inactive); in the assay with HCT-15, 2.75 µM; with Hs-578T it was 6.3 µM (inactive); in the assay with KM12 it was 1.95 µM (inactive); in the assay with MDA-MB-231 it was 2.2 µM (inactive); in the assay on MDA-MB-435 it was 5.78 µM (inactive). Besides, the GI50 was 0.372 µM (active) with MOLT-4; 2.3 µM (inactive) with NCI/ADR-RES; 13.3 µM (inactive) with OVCAR-5; 2.48 µM (inactive) in the assay on SF-268; 2.61 µM (inactive) with SNB-19; 3.33 µM (inactive) in the assay on U-251. Also, the values for the GI50 in the assay on UACC-62 and with UO-31 were 2.34 µM (inactive) and 1.84 µM (inactive), respectively.

Regarding `O=C1Nc2c(Cl)cc(Cl)cc2/C1=N/Nc1ccccc1[N+](=O)[O-]`, the GI50 is 5.75 µM (inactive) with 786-0; 39.4 µM (inactive) in the assay on CAKI-1; 46 µM (inactive) in the assay with CCRF-CEM; 92.5 µM (inactive) with COLO 205; > 100 µM (inactive) in the assay on DU-145; 5.7 µM (inactive) with EKVX. Also, the GI50 was > 100 µM (inactive) in the assay on HCC 2998; 72.1 µM in the assay with HCT-15; 8.32 µM (inactive) in the assay on Hs-578T; 88.9 µM (inactive) in the assay with KM12; 18.3 µM (inactive) in the assay with MDA-MB-231; > 100 µM (inactive) in the assay on MDA-MB-435. The GI50 is 46.1 µM (inactive) with MOLT-4; 40.3 µM (inactive) in the assay with NCI/ADR-RES; > 100 µM (inactive) in the assay on OVCAR-5; 25.1 µM (inactive) with SF-268; 23.7 µM (inactive) in the assay with SNB-19; 6.85 µM (inactive) in the assay on U-251. Moreover, the figures for the GI50 with UACC-62 and with UO-31 were 22.2 µM (inactive) and > 100 µM (inactive), respectively.
